Results reported in US11578074B2, “Nitrogenous heterocyclic compound, preparation method, intermediate, composition, and application” (SHANGHAI PHARMACEUTICALS HOLDING CO., LTD., priority 2017, dated 2023).
Read-outs that look alike come from different tables or passages of the source.

Tests used:
CYP2C9 = target: T1, CYP2C9 (Homo sapiens, UniProt P11712); assay: Direct inhibition (DI) of CYP2C9 in human liver microsomes; format: in vitro ADME; conditions: probe Diclofenac, human liver microsomes 0.2 mg/mL, 10 μM compound, read-out: Direct inhibition (DI) 2C9 (Diclofenac)
T1 construct: A system of 100 μL human liver microsomes; from tissue; host or cells: human liver microsomes
Procedure: (§1) Study on Direct Inhibition (DI) of CYP3A4, CYP2D6, CYP2C9, CYP2C19, CYP1A2
(§2) A system of 100 μL human liver microsomes (final concentration: 0.2 mg/mL) was used for direct inhibition under warm incubation. The system contained NADPH (final concentration: 1 mM), 10 μM compound, a positive inhibitor cocktail (Ketoconazole 10 μM, Quinidine: 10 μM, Sulfaphenazole: 100 μM, Naphthoflavone: 10 μM, Tranylcypromene 1000 μM), a negative control 10 μM DMSO and mixed probe substrates (Midazolam 10 μM, Testosterone 100 μM, Dextromethophan 10 μM, Diclofenac 20 μM, Phenetin 100 μM, Mephenytoin 100 μM). The reaction was terminated after incubation for 20 minutes. The relative activity of the enzymes was calculated by measuring the relative production of metabolites.

CYP1A2 = target: T2, CYP1A2 (Homo sapiens, UniProt P05177); assay: Direct inhibition (DI) of CYP1A2 in human liver microsomes; format: in vitro ADME; conditions: probe Phenacetin, human liver microsomes 0.2 mg/mL, 10 μM compound, read-out: Direct inhibition (DI) 1A2 (Phenacetin)
T2 construct: A system of 100 μL human liver microsomes; from tissue; host or cells: human liver microsomes
T2 sequence (P05177 1-516): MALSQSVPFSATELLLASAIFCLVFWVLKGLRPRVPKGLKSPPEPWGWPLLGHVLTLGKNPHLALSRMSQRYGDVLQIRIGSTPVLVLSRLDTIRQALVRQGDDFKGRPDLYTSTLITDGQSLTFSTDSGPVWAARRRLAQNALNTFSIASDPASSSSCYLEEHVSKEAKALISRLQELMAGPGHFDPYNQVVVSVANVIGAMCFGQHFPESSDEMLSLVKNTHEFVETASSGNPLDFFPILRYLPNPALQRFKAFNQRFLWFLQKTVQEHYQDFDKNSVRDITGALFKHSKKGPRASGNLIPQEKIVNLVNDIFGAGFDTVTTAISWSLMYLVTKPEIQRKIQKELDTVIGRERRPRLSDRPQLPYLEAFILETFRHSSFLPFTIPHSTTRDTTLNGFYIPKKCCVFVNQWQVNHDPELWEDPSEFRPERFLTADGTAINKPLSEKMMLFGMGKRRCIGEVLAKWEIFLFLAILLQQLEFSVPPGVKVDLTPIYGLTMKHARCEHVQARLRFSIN
Procedure: as §1, §2

CYP2D6 = target: T3, CYP2D6 (Homo sapiens, UniProt P10635); assay: Direct inhibition (DI) of CYP2D6 in human liver microsomes; format: in vitro ADME; conditions: probe Dextromethorphan, human liver microsomes 0.2 mg/mL, 10 μM compound, read-out: Direct inhibition (DI) 2D6 (Dextromethorphan)
T3 construct: A system of 100 μL human liver microsomes; from tissue; host or cells: human liver microsomes
Procedure: as §1, §2

CYP2C19 = target: T4, CYP2C19 (Homo sapiens, UniProt P33261); assay: Direct inhibition (DI) of CYP2C19 in human liver microsomes; format: in vitro ADME; conditions: probe Mephenytoin, human liver microsomes 0.2 mg/mL, 10 μM compound, read-out: Direct inhibition (DI) 2C19 (Mephenytoin)
T4 construct: A system of 100 μL human liver microsomes; from tissue; host or cells: human liver microsomes
Procedure: as §1, §2

ErbB2 kinase = target: T5, ErbB2 kinase (Homo sapiens, UniProt P04626); assay: EGFR/ErbB2 enzymatic experiment (HTRF kinEASE-TK), ErbB2; format: biochemical; conditions: ErbB2 kinase 0.06 ng/μL, ATP 4 μM; read-out: Kinase IC50 (nM) in vitro ErbB2
T5 construct: The final concentration of ErbB2 kinase was 0.06 ng/μL
Procedure: (§3) EGFR/ErbB2 Enzymatic Experiment
(§4) Firstly, 1× reaction buffer required for the kinase was prepared, then 5× Enzymatic buffer (HEPES 20 mM pH 7.0, NaN3 0.1%, BSA 0.05%, sodium orthovanadate 0.5 mM) was diluted in HTRF kinEASE-TK kit by 1 time with deionized water, and 50 nM Supplement Enzymatic buffer (SEB REAGENT), 1 mM MnCl2, 5 mM MfCl2, 1 mM DTT were added. Secondly, 5× compound was prepared, and 10 mM test compound storage solution was diluted in multiple steps with DMSO in a 96-well compound plate to prepare 100× compound as an initial concentration, which was then used as the first concentration to carry out a 3-fold gradient dilution with DMSO to obtain a total of 10 concentrations. Then 1 μL of gradient diluent was added to 19 μL of 1× reaction buffer to prepare 5× compound for later use. Then 2 μL of 5× compound was transferred from the 96-well plate into a 384-well plate. To the compound-free control wells was added 2 μL of the following liquid: 19 μL of 1× reaction buffer with addition of 1 μL of DMSO. To the blank control well was added 2 μL of 250 mM EDTA. […] In the fourth step of reaction termination, HTRF Detection buffer was used to prepare a mixture of 2×TK Antibody-EU (K) and Sa-XL665, and the amount of TK Antibody-EU (K) was 5 μL per well. After the enzyme reaction was carried out for 30 minutes, 10 μL of the above liquid was added to a 384-well plate, and the reaction was carried out at room temperature for 1 hour. […] RFU665 nM and RFU620 nM were measured, and RFU665 nM/RFU620 nM×10000 was used as final data for analysis.

EGFR kinase = EGFR kinase (Homo sapiens, UniProt P00533); assay: EGFR/ErbB2 enzymatic experiment (HTRF kinEASE-TK), EGFR; format: biochemical; conditions: EGFR kinase 0.06 units/μL, ATP 1.65 μM; read-out: Kinase IC50 (nM) in vitro EGFR
Procedure: as §3, §4

[1] = test system: BT-474 (human breast cancer cell); assay: In vitro proliferation inhibition assay of cell lines (CellTiter-Glo), BT-474; format: cell-based; conditions: BT-474 cells, 72 hours
Procedure: (§5) In Vitro Proliferation Inhibition Assay of Cell Lines
1. […] 2. Dosing to the cells: on the second day of the experiment, the microplate was taken out from the incubator, and 10 μL of 10× compound was added to each well of the microplate, setting 2 duplicate wells for each drug concentration and 9 dosing concentrations for each compound. According to different cell lines, the initial concentration of each compound was different. Upon completion of addition, the microplate was placed under the conditions of 37° C. and 5% CO2 for 72 hours. 3. Data acquisition: the microplate was taken out from the incubator and was allowed to equilibrate at room temperature for 30 minutes. 100 μL of CellTiter-Glo® Luminescent Cell Viability Assay reaction solution which had been equilibrated at room temperature was added to each well, and the reaction solution was shaken at 1300 rpm for 2 minutes at room temperature. After that, the microplate was placed in HERAEUS Multifuge X1R centrifuge, centrifuged at 2000 rpm for 1 minute, and allowed to equilibrate at room temperature for 10 minutes. The fluorescence signal value was measured on EnVision™.

CYP3A4 = target: T6, CYP3A4 (Homo sapiens, UniProt P08684); assay: Direct inhibition (DI) of CYP3A4 in human liver microsomes; format: in vitro ADME; conditions: human liver microsomes 0.2 mg/mL, 10 μM compound
T6 construct: A system of 100 μL human liver microsomes; from tissue; host or cells: human liver microsomes
Procedure: as §1, §2

[2] = test system: N87 (human gastric cancer cell NCI-N87); assay: In vitro proliferation inhibition assay of cell lines (CellTiter-Glo), N87; format: cell-based; conditions: N87 cells, 72 hours
Procedure: as §5
1. Cell culture and inoculation: on the first day of the experiment, normal cultured cells were taken, and in the exponential growth state, after digestion and dispersion, the cell density was then adjusted to 8.8×10^4 cells/mL for BT-474, and 6.6×10^4 cells/mL for N87, and 90 μL of which were inoculated to each well of a 96-well cell culture plate; after the inoculation was completed, the microplate was cultured under the conditions of 37° C. and 5% CO2 overnight. 2. Dosing to the cells: on the second day of the experiment, the microplate was taken out from the incubator, and 10 μL of 10× compound was added to each well of the microplate, setting 2 duplicate wells for each drug concentration and 9 dosing concentrations for each compound. According to different cell lines, the initial concentration of each compound was different. Upon completion of addition, the microplate was placed under the conditions of 37° C. and 5% CO2 for 72 hours. 3. Data acquisition: the microplate was taken out from the incubator and was allowed to equilibrate at room temperature for 30 minutes. 100 μL of CellTiter-Glo® Luminescent Cell Viability Assay reaction solution which had been equilibrated at room temperature was added to each well, and the reaction solution was shaken at 1300 rpm for 2 minutes at room temperature. After that, the microplate was placed in HERAEUS Multifuge X1R centrifuge, centrifuged at 2000 rpm for 1 minute, and allowed to equilibrate at room temperature for 10 minutes. The fluorescence signal value was measured on EnVision™.

[3] = probe Midazolam, read-out: Direct inhibition (DI) 3A4 (Midazolam)
[4] = probe Testosterone, read-out: Direct inhibition (DI) 3A4 (testosterone)

T3 sequence (P10635 whole entry): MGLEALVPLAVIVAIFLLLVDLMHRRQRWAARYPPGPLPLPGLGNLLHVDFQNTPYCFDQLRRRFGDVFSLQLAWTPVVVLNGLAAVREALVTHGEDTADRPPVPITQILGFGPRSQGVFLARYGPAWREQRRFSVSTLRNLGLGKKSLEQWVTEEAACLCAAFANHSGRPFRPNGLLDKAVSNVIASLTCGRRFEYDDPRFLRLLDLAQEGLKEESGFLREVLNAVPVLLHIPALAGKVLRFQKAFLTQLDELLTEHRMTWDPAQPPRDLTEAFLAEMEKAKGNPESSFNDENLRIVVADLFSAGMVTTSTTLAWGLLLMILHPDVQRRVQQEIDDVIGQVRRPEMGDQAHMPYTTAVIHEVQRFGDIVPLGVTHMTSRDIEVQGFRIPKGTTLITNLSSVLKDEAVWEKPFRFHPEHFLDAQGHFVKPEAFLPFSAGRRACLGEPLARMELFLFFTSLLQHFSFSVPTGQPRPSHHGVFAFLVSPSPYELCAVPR
T4 sequence (P33261 whole entry): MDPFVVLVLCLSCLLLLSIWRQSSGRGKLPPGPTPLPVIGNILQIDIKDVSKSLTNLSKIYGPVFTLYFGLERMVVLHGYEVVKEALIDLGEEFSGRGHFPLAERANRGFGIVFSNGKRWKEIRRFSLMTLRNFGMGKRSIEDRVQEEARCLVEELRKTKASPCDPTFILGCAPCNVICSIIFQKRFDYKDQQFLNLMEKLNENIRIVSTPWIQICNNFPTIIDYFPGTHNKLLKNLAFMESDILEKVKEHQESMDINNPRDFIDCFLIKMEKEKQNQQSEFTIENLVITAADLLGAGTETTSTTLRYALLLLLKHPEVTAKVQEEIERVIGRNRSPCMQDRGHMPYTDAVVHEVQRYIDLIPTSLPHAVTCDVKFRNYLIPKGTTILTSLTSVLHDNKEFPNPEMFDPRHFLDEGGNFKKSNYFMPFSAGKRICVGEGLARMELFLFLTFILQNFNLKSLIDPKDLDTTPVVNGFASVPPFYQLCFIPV
T1 sequence (P11712 whole entry): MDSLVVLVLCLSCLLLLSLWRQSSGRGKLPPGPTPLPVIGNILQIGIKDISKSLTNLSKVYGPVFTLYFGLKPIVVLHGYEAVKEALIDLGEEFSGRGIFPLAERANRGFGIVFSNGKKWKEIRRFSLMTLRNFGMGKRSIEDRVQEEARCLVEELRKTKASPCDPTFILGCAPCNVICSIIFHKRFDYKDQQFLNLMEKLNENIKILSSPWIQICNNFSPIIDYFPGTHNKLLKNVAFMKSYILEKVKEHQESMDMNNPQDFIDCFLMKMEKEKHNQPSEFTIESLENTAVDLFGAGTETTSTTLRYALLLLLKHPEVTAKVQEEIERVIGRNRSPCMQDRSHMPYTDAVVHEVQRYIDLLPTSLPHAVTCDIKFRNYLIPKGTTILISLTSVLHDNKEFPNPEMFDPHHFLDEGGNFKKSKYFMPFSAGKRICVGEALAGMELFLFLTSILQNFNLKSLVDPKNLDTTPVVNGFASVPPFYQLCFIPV
T6 sequence (P08684 whole entry): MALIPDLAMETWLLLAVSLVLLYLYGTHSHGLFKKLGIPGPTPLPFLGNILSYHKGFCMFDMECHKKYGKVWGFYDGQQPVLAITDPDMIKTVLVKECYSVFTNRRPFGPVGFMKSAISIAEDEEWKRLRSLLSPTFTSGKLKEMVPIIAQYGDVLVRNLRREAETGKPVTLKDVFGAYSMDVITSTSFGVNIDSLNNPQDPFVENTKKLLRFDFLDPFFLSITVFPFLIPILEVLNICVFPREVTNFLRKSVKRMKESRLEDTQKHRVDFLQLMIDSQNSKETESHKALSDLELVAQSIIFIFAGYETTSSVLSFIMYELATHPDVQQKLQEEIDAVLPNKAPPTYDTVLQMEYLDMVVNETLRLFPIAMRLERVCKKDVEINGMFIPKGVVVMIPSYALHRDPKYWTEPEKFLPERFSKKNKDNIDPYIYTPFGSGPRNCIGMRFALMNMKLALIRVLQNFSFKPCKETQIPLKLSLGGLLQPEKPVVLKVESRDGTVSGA
T5 sequence (P04626 23-1255): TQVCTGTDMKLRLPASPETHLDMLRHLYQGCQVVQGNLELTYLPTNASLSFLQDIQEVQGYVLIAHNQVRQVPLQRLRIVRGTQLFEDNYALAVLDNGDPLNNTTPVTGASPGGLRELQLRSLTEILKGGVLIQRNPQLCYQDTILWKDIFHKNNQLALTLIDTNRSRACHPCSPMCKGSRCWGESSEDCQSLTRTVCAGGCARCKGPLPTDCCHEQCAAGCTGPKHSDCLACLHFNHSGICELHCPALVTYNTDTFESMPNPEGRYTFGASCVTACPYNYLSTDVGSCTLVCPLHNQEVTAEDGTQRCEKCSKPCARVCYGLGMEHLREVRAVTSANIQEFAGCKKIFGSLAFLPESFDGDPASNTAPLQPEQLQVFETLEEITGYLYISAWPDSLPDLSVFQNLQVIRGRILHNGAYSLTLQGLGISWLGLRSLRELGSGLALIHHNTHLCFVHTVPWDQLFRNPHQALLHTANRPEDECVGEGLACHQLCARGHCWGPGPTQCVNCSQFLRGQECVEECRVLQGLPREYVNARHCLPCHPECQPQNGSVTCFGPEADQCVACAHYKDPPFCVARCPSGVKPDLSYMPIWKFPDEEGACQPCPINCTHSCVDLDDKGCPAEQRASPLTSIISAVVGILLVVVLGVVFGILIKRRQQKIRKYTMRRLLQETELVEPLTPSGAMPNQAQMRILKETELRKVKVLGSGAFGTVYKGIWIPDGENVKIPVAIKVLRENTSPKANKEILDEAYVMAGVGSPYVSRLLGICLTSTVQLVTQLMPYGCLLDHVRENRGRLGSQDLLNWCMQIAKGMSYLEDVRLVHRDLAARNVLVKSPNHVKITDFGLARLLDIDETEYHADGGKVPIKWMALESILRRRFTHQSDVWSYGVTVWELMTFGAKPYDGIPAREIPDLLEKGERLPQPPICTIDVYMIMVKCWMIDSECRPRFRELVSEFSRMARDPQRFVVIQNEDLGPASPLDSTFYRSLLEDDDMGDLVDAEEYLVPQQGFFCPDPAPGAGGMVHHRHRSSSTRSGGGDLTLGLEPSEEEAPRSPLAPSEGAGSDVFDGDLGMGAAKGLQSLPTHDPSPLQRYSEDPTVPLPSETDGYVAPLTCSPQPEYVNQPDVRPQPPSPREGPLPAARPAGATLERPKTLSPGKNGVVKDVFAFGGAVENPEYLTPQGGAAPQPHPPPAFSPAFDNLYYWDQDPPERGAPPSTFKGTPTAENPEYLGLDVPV
Chain of EGFR kinase (P00533 25-1210): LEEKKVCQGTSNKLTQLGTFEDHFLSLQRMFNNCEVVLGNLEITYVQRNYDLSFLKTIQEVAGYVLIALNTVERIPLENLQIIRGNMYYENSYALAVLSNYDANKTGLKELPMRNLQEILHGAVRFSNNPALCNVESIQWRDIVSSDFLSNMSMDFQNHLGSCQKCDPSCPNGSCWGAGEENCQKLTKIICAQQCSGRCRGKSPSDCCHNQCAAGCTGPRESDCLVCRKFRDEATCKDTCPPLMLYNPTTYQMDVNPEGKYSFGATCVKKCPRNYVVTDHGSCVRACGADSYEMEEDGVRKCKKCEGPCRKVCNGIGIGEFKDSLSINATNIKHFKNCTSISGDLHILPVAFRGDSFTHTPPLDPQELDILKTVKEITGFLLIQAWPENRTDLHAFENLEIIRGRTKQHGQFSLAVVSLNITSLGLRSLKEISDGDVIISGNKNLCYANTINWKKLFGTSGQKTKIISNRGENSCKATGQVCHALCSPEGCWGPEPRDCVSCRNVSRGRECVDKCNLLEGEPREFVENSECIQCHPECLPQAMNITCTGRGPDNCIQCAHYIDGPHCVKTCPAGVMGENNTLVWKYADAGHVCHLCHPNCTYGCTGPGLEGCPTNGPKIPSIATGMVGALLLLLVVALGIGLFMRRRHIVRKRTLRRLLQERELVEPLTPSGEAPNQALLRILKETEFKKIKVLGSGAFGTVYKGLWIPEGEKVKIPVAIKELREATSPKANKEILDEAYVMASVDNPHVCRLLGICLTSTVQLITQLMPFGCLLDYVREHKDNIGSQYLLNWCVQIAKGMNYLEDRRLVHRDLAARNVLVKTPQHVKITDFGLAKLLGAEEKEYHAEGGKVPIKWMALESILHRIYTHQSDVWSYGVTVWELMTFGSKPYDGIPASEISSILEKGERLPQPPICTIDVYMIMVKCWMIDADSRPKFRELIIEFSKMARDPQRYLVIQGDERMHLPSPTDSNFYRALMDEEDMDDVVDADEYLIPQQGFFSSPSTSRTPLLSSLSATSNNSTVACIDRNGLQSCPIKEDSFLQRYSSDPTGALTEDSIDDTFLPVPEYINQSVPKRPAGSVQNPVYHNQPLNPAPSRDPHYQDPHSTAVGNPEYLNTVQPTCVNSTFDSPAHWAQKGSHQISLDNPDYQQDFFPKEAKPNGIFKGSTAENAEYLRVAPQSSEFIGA

Row | Compound | inhibition at 20 min, 10 µM (CYP2C9) | inhibition at 20 min, 10 µM (CYP1A2) | inhibition at 20 min, 10 µM (CYP2D6) | inhibition at 20 min, 10 µM (CYP2C19) | IC50 (ErbB2 kinase) | IC50 (EGFR kinase) | IC50 [1] | inhibition at 20 min, 10 µM (CYP3A4; [3]) | inhibition at 20 min, 10 µM (CYP3A4; [4]) | IC50 [2]
1 | C=CC(=O)N[C@H]1CCCN(c2ccc3ncnc(Nc4ccc(Oc5cc6nncn6cn5)c(C)c4)c3c2)C1 [Final product of Embodiment 5, (S)—N-(1-(4-((4-([1,2,4]triazolo[4,3-c]pyrimidin-7-yloxy)-3-methylphenyl)amino)quinazolin-6-yl)piperidin-3-yl)acrylamide] | 49% | 9% | 14% | 18% | 2.04 nM | 62.1 nM | 14.4 nM | 71% | 74% | 20.1 nM
2 | C=CC(=O)N1CCC(c2ccc3ncnc(Nc4ccc(Oc5cc6nncn6cn5)c(C)c4)c3c2)CC1 [Final product of Embodiment 4, 1-(4-(4-((4-([1,2,4]triazolo[4,3-c]pyrimidin-7-yloxy)-3-methylphenyl)amino)quinazolin-6-yl)piperidin-1-yl)propan-2-en-1-one] | 48% | < 0% | 7% | 23% | 6.09 nM | 168 nM | 4.79 nM | 49% | 56% | 5.75 nM
3 | CN1CCC[C@@H]1/C=C/C(=O)Nc1ccc2ncnc(Nc3ccc(Oc4ccn5ncnc5c4)c(Cl)c3)c2c1 [Final product of Embodiment 26, (R,E)-N-(4-((4-([1,2,4]triazolo[1,5-a]pyridin-7-yloxy)-3-chlorophenyl)amino)quinazolin-6-yl)-3-(1-methylpyrrolidin-2-yl)acrylamide] | 19% | 2% | 85% | 28% | 0.83 nM | 2.52 nM | 5.23 nM | < 0% | 5% | 3.55 nM
4 | Cc1cc(Nc2ncnc3ccc(NC(=O)/C=C/[C@H]4CCCN4C)cc23)ccc1Oc1ccn2ncnc2n1 [Final product of Embodiment 12, (R,E)-N-(4-((4-([1,2,4]triazolo[1,5-a]pyrimidin-5-yloxy)-3-methylphenyl)amino)quinazolin-6-yl)-3-(1-methylpyrrolidin-2-yl)-acrylamide] | 5% | 2% | 77% | 13% | 0.99 nM | 0.42 nM | 4.01 nM | < 0% | 4% | 4.19 nM
5 | Cc1cc(Nc2ncnc3ccc(NC(=O)/C=C/[C@H]4CCCN4C)cc23)ccc1Oc1cc2nccn2cn1 [Final product of Embodiment 41] | < 0% | < 0% | 71% | 1% | 0.6 nM | 0.6 nM | 3.9 nM | < 0% | 6% | 8.5 nM
6 | CCOc1cc2ncnc(Nc3ccc(Oc4ccn5ncnc5c4)c(C)c3)c2cc1NC(=O)/C(F)=C\[C@@H]1CCCN1C | 21% | 23% | 38% | 43% | 4.6 nM | 50.9 nM | 5.9 nM | 14% | 32% | 3.1 nM
7 | Cc1cc(Nc2ncnc3ccc(NC(=O)/C=C/[C@H]4CCCN4C)cc23)ccc1Oc1ccn2ncnc2c1 [Final product of Embodiment 20, (R,E)-N-(4-((4-([1,2,4]triazolo[1,5-a]pyridin-7-yloxy)-3-methylphenyl)amino)quinazolin-6-yl)-3-(1-methylpyrrolidin-2-yl)acrylamide] | < 0% | 6% | 61% | 7% | 0.584 nM | 3.93 nM | 3.23 nM | 0% | 14% | 2.07 nM
